In PubChem BioAssay (NCI):
Values joined by “and” are separate entries in the source; they are usually repeats but may differ in a detail not shown here. Identical values can stand only once.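 Each compound was tested at five concentrations against cells in 96-well plates for 48 hours. At the GI50, growth is halved. TGI denotes the concentration required for complete inhibition of growth.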

Tests used:
Test in all cases: DTP human tumour cell line panel, 48 h
SN12C renal = system: SN12C renal
IGROV1 ovarian = system: IGROV1 ovarian
SK-MEL-28 melanoma = system: SK-MEL-28 melanoma
U251 CNS = system: U251 CNS
OVCAR-3 ovarian = system: OVCAR-3 ovarian
LOX IMVI melanoma = system: LOX IMVI melanoma
HOP-62 NSCLC = system: HOP-62 NSCLC
SF-268 CNS = system: SF-268 CNS
MDA-MB-231 breast = system: MDA-MB-231 breast
MCF7 breast = system: MCF7 breast

| Compound | GI50 (SN12C renal) [µM] | TGI (SN12C renal) | GI50 (IGROV1 ovarian) [µM] | TGI (IGROV1 ovarian) [µM] | GI50 (SK-MEL-28 melanoma) [µM] | TGI (SK-MEL-28 melanoma) | TGI (U251 CNS) | TGI (OVCAR-3 ovarian) [µM] | GI50 (LOX IMVI melanoma) [µM] | TGI (LOX IMVI melanoma) | GI50 (HOP-62 NSCLC) [µM] | TGI (HOP-62 NSCLC) | TGI (SF-268 CNS) | GI50 (MDA-MB-231 breast) [µM] | TGI (MDA-MB-231 breast) | GI50 (U251 CNS) [µM] | GI50 (OVCAR-3 ovarian) [µM] | GI50 (MCF7 breast) [µM] | TGI (MCF7 breast) | GI50 (SF-268 CNS) [µM] |
| --- | --- | --- | --- | --- | --- | --- | --- | --- | --- | --- | --- | --- | --- | --- | --- | --- | --- | --- | --- | --- |
| COC1CC(OS(=O)(=O)c2ccc(C)cc2)C(OC(=O)c2ccccc2)C(C)O1 (configuration not stated) | > 100 | > 100 µM | > 100 | > 100 | > 100 | > 100 µM | > 10 µM | > 10 | > 100 | > 100 µM | > 100 | > 100 µM | > 100 µM | – | – | – | – | – | – | – |
| CCOC(=O)C1=C(NC)OC/C1=N\NC(=O)c1ccccc1O | – | > 100 µM | – | > 100 | – | > 100 µM | > 100 µM | 98.5 | – | 70.4 µM | – | > 100 µM | > 100 µM | – | – | – | – | – | – | – |
| Cc1c(C#N)c(=O)[nH]c(=O)n1CCN1CCN(C(=O)NCCCCCCNC(=O)N2CCN(CCn3c(C)c(C#N)c(=O)[nH]c3=O)CC2)CC1 | – | > 100 µM | – | > 100 | – | > 100 µM | > 100 µM | > 100 | – | > 100 µM | – | > 100 µM | – | – | – | – | – | – | – | – |
| O=C(O)C1(P(=O)(O)O)CC1 | – | > 100 µM | – | > 100 | – | > 100 µM | > 100 µM | > 100 | – | – | – | > 100 µM | > 100 µM | – | – | – | – | – | – | – |
| COc1cc2c(cc1OC(=O)CC(C)O)C1C(OC2=O)C(OC(C)=O)C=C2CCN(C)[C@H]21 (some centres not stated) | – | > 100 µM | – | 70.4 | – | > 100 µM | 61.4 µM | > 100 | – | > 100 µM | – | 55.7 µM | > 100 µM | – | – | – | – | – | – | – |
| CCN1CCC(CCOC)(CN2c3ccccc3Sc3ccc(Cl)cc32)C1 (configuration not stated) | 12 | 28.2 µM | 1.97 | 3.99 | 1.97 | 3.62 µM | 3.64 µM | 4.1 | – | – | 1.67 | 3.13 µM | 8.67 µM | 1.86 | 3.67 µM | 1.89 | 1.88 | 1.86 | 3.54 µM | 2.73 |
| CS(=O)(=O)c1ccc(C(=O)Nc2ccc(Cl)c(-c3ccccn3)c2)c(Cl)c1 | – | > 100 µM and 51.3 µM | – | > 100 | – | > 100 µM and 16.3 µM | > 100 µM and 15.8 µM | – | – | > 100 µM and 10.1 µM | – | > 100 µM and 19.3 µM | > 100 µM and 66.5 µM | – | > 96.2 µM and 15.7 µM | – | – | – | > 100 µM and 14.9 µM | – |
| COc1cc(C(=O)C/C(CCC(=O)Nc2ccccc2[N+](=O)[O-])=N\NC(=O)CC#N)ccc1O | – | > 100 µM | – | > 100 | – | > 100 µM | – | > 100 | – | > 100 µM | – | > 100 µM | > 100 µM | – | – | – | – | – | – | – |
| CC(=O)OC1CCn2nnc(CO[Si](C)(C)C(C)(C)C)c21 (configuration not stated) | – | > 100 µM | – | > 100 | – | > 100 µM | > 100 µM | > 100 | – | – | – | – | – | – | – | – | – | – | – | – |
| CCCCNCC(=O)O[C@]1(CC)C(=O)OCc2c1cc1n(c2=O)Cc2cc3ccccc3nc2-1 | – | > 16.2 µM | – | > 39.3 | – | > 93.8 µM | 4.49 µM | 12.8 | – | 1.43 µM | – | – | > 95.6 µM | – | > 100 µM | – | – | – | – | – |
| C=CCOC1OC(CO[Si](C)(C)C(C)(C)C)C(OCc2ccccc2)C(OCc2ccccc2)C1OCc1ccccc1 (configuration not stated) | – | > 100 µM | – | > 100 | – | > 100 µM | > 100 µM | > 100 | – | > 100 µM | – | 48.3 µM | > 100 µM | – | – | – | – | – | > 100 µM | – |
| CCC1CN2CCc3cc(OC)c(OC)cc3C2CC1CC1c2cc(OC)c(OC)cc2CCN1C(=O)C1CCCN1C(=O)OCc1ccccc1 (configuration not stated) | – | 30.6 µM | – | 33.4 | – | 30.7 µM | 28.3 µM | 30.7 | – | 29.1 µM | – | 31.8 µM | 31.9 µM | – | – | – | – | – | – | – |
